Experimental data taken from patent US9676789B2, “Aminated derivative of homoharringtonine, preparation method therefor, and application thereof” (HANGZHOU BENSHENG PHARMACEUTICAL CO., LTD., priority 2011, dated 2017).
In brackets after ≈: the same amount, converted by molar mass.

Experiments:
[1] = system: H9 (acute lymphoblastic leukemia, ALL); assay: MTT leukemia cell growth inhibition, 72 h; assay type: cell-based, human; settings: Homo sapiens, H9, 72 h
Outline: (§1)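 Seed 6000 cells/well; 1640 + 10% FBS; add derivative at various concentrations, mix; 72 h, 37 °C, 5% CO2; MTT read; untreated = 100%.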

[2] = system: Jurkat (acute lymphoblastic leukemia, ALL); assay: MTT leukemia cell growth inhibition, 72 h; assay type: cell-based, human; settings: Homo sapiens
Outline: as §1

[3] = system: K562/adr (drug-resistant, chronic myeloid leukemia, CML); assay: MTT leukemia cell growth inhibition, 72 h; assay type: cell-based, human; settings: Homo sapiens, K562/Adr
Outline: as §1

[4] = system: Kasumi-1 (acute myeloid leukemia M2 type, AML-M2); assay: MTT leukemia cell growth inhibition, 72 h; assay type: cell-based, human; settings: Homo sapiens, Kasumi-1, 72 h
Outline: as §1

[5] = system: NB4 (acute promyelocytic leukemia, AML); assay: MTT leukemia cell growth inhibition, 72 h; assay type: cell-based, human; settings: Homo sapiens, NB4, 72 h
Outline: as §1

[6] = system: RPMI8226 (multiple myeloma); assay: MTT multiple myeloma cell growth inhibition, 72 h; assay type: cell-based, human
Outline: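 RPMI8226 cells at 6000 per well in 1640 medium with 10% fetal bovine serum, exposed to homoharringtonine derivatives at various concentrations. Incubation 72 h at 37° C, 5% CO2; viable cells read by MTT.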

A549 (human lung cancer) = assay: MTT solid tumor cell growth inhibition, 72 h; assay type: cell-based; settings: Homo sapiens, A549, 72 h
Outline: (§2)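 Steps: seed 4000 cells per well in 10% FBS DMEM high glucose; incubate 24 h at 37° C under 5% CO2; add homoharringtonine derivatives at several concentrations; incubate 72 h; determine viable cells by MTT and calculate % viability versus untreated control.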

[7] = system: Becap37 (human breast cancer cell); assay: MTT solid tumor cell growth inhibition, 72 h; assay type: cell-based; settings: Homo sapiens, Becap37, 72 h
Outline: as §2

[8] = system: Hela (human cervical cancer cell); assay: MTT solid tumor cell growth inhibition, 72 h; assay type: cell-based; settings: Homo sapiens, HeLa
Outline: as §2

[9] = system: Hep-2 (human hepatocellular carcinoma); assay: MTT solid tumor cell growth inhibition, 72 h; assay type: cell-based; settings: Homo sapiens, HEp-2, Hep2, 72 h
Outline: as §2

[10] = system: Huh7 (human liver cancer cell); assay: MTT solid tumor cell growth inhibition, 72 h; assay type: cell-based; settings: Homo sapiens, Huh-7, Huh7, 72 h
Outline: as §2

[11] = system: MGC 803 (human gastric cancer cell); assay: MTT solid tumor cell growth inhibition, 72 h; assay type: cell-based; settings: Homo sapiens, MGC 803, 72 h
Outline: as §2

[12] = system: RKO (human colon adenocarcinoma cell); assay: MTT solid tumor cell growth inhibition, 72 h; assay type: cell-based; settings: Homo sapiens
Outline: as §2

[13] = system: CNE (nasopharyngeal carcinoma cell); assay: MTT solid tumor cell growth inhibition, 72 h; assay type: cell-based, human; settings: Homo sapiens
Outline: as §2

[14] = system: CaES-17 (esophageal cancer cell); assay: MTT solid tumor cell growth inhibition, 72 h; assay type: cell-based, human; settings: Homo sapiens, CaEs17, CaES-17, 72 h
Outline: as §2

MG63 (osteosarcoma) = assay: MTT solid tumor cell growth inhibition, 72 h; assay type: cell-based, human; settings: Homo sapiens, MG 63, 72 h
Outline: as §2

[15] = system: PANC-1 (pancreatic cancer); assay: MTT solid tumor cell growth inhibition, 72 h; assay type: cell-based, human; settings: Homo sapiens, PANC-1, 72 h
Outline: as §2

PC-3 (prostate cancer) = assay: MTT solid tumor cell growth inhibition, 72 h; assay type: cell-based, human; settings: Homo sapiens, PC-3, 72 h
Outline: as §2

[16] = system: SK-OV-3 (ovarian cancer cell); assay: MTT solid tumor cell growth inhibition, 72 h; assay type: cell-based, human; settings: Homo sapiens, SK-OV-3, 72 h
Outline: as §2

[17] = system: U87 MG (malignant glioma cell); assay: MTT solid tumor cell growth inhibition, 72 h; assay type: cell-based, human; settings: Homo sapiens, U-87 MG
Outline: as §2

[18] = system: K562/adr, NB4, Kasumi-1 and H9; assay: Anti-leukemia activity, summary over cell lines; assay type: cell-based, human; settings: result in words, summary of Table 1
Text: Leukemia cell lines: K562/adr (drug-resistant, chronic myeloid leukemia, CML), NB4 (acute promyelocytic leukemia, AML), Kasumi-1 (acute myeloid leukemia M2 type, AML-M2), Jurkat (acute lymphoblastic leukemia, ALL), all of which are donated by Cancer Research Institute of Zhejiang University, China; and H9 (acute lymphoblastic leukemia, ALL), which is purchased from China Center for Type Culture Collection.
Obtaining 6000 well-growing leukemia cells and inoculating them into wells of a 96-well cell culture plate. The culture medium is the 1640 cell culture medium containing 10% fetal bovine serum. After adding the homoharringtonine derivatives of different concentrations and mixing uniformly, placing the plate in a carbon dioxide cell incubator (5% CO2) at 37° C. and incubating for 72 hours. Then the viable cell concentration is determined by the MTT method. In this experiment, the cell viability in control group (not treated with any compound) is set as 100%.

[19] = system: A549, PANC-1, Becap37, MG63, Huh7, RKO, Hela, CaES-17, CNE, Hep-2, PC-3 and SK-OV-3; assay: Anti-human solid tumor effect, summary over cell lines; assay type: cell-based; settings: result in words, summary of Table 2
Experimental: Human solid tumor cell lines: Hep-2 ([…]), A549 (human lung cancer), CaES-17 (esophageal cancer cell), PC-3 (prostate cancer), CNE (nasopharyngeal carcinoma cell), and SK-OV-3 (ovarian cancer cell), all of which are purchased from China Center For Type Culture Collection; RKO (human colon adenocarcinoma cell), MGC 803 (human gastric cancer cell), MG63 (osteosarcoma) and U87 MG (malignant glioma cell), all of which are purchased from Fuxiang Bio-tech Co. Ltd., Shanghai, China; PANC-1 (pancreatic cancer), Huh7 (human liver cancer cell), Becap37 (human breast cancer cell), and Hela (human cervical cancer cell), all of which are donated by Cancer Research Institute of Zhejiang University, China.
Obtaining 4000 well-growing human solid tumor cells and inoculating them into wells of a 96-well cell culture plate. The culture medium is DMEM High Glucose cell culture medium containing 10% fetal bovine serum. The plate is placed in a carbon dioxide cell incubator (5% CO2) at 37° C. and incubating for 24 hours. After adding the homoharringtonine derivatives of different concentration and mixing uniformly, the plate is placed in a carbon dioxide cell incubator (5% CO2) at 37° C. and incubating for 72 hours. Then the viable cell concentration is determined by the MTT method and the cell viability (%) after drug treatment is calculated. In this experiment, the cell viability of control group (not treated with any compound) is set as 100%.

COC1=C[C@]23CCCN2CCc2cc4c(cc2[C@@H]3[C@@H]1OC(=O)[C@@](O)(CCCC(C)(C)O)CC(=O)NC1CCCCC1)OCO4 [BS-HH-042, O-3-[(2R)-2,6-dihydroxy-2-(2′-cyclohexaneamino-2′-oxoethyl)-6-methylheptanoyl]cephalotaxine]
IC50 ([1]; read-out: IC50): 0.04 µg/mL (≈ 0.0653 µM)
IC90 ([1]; read-out: IC90): 0.1 µg/mL (≈ 0.163 µM)
IC50 ([2]; read-out: IC50): 0.037 µg/mL (≈ 0.0604 µM)
IC90 ([2]; read-out: IC90): 16 µg/mL (≈ 26.1 µM)
IC50 ([3]; read-out: IC50): 3.2 µg/mL (≈ 5.22 µM)
IC90 ([3]; read-out: IC90): 16 µg/mL (≈ 26.1 µM)
IC50 ([4]; read-out: IC50): 0.048 µg/mL (≈ 0.0783 µM)
IC90 ([4]; read-out: IC90): 0.21 µg/mL (≈ 0.343 µM)
IC50 ([5]; read-out: IC50): 0.06 µg/mL (≈ 0.0979 µM)
IC90 ([5]; read-out: IC90): 0.13 µg/mL (≈ 0.212 µM)
IC50 ([6]; Homo sapiens, RPMI-8226, RPMI8226, 72 h, read-out: IC50): 0.042 µg/mL (≈ 0.0685 µM)
IC90 ([6]; Homo sapiens, RPMI-8226, RPMI8226, 72 h, read-out: IC90): 0.24 µg/mL (≈ 0.392 µM)
anti-RPMI8226 (multiple myeloma) effect ([6]; result in words, summary of Table 2): strong
IC50 (A549 (human lung cancer); read-out: IC50): 0.45 µg/mL (≈ 0.734 µM)
IC90 (A549 (human lung cancer); read-out: IC90): > 16 µg/mL
IC50 ([7]; read-out: IC50): 0.17 µg/mL (≈ 0.277 µM)
IC90 ([7]; read-out: IC90): > 16 µg/mL
IC50 ([8]; read-out: IC50): 0.45 µg/mL (≈ 0.734 µM)
IC90 ([8]; read-out: IC90): > 16 µg/mL
IC50 ([9]; read-out: IC50): 0.97 µg/mL (≈ 1.58 µM)
IC90 ([9]; read-out: IC90): > 16 µg/mL
IC50 ([10]; read-out: IC50): 0.044 µg/mL (≈ 0.0718 µM)
IC90 ([10]; read-out: IC90): > 16 µg/mL
IC50 ([11]; read-out: IC50): 0.096 µg/mL (≈ 0.157 µM)
IC90 ([11]; read-out: IC90): 0.25 µg/mL (≈ 0.408 µM)
IC50 ([12]; read-out: IC50): 0.029 µg/mL (≈ 0.0473 µM)
IC90 ([12]; read-out: IC90): 0.23 µg/mL (≈ 0.375 µM)
IC50 ([13]; read-out: IC50): 0.13 µg/mL (≈ 0.212 µM)
IC90 ([13]; read-out: IC90): > 16 µg/mL
IC50 ([14]; read-out: IC50): 0.29 µg/mL (≈ 0.473 µM)
IC90 ([14]; read-out: IC90): 16 µg/mL (≈ 26.1 µM)
IC50 (MG63 (osteosarcoma); read-out: IC50): 0.12 µg/mL (≈ 0.196 µM)
IC90 (MG63 (osteosarcoma); read-out: IC90): 16 µg/mL (≈ 26.1 µM)
IC50 ([15]; read-out: IC50): 0.13 µg/mL (≈ 0.212 µM)
IC90 ([15]; read-out: IC90): > 16 µg/mL
IC50 (PC-3 (prostate cancer); read-out: IC50): 0.31 µg/mL (≈ 0.506 µM)
IC90 (PC-3 (prostate cancer); read-out: IC90): > 16 µg/mL
IC50 ([16]; read-out: IC50): 0.21 µg/mL (≈ 0.343 µM)
IC90 ([16]; read-out: IC90): > 16 µg/mL
IC50 ([17]; read-out: IC50): 0.12 µg/mL (≈ 0.196 µM)
IC90 ([17]; read-out: IC90): 13 µg/mL (≈ 21.3 µM)
anti-K562/adr, anti-NB4, anti-Kasumi-1 and anti-H9 activity [18]: strong
anti-A549, anti-PANC-1, anti-Becap37, anti-MG63, anti-Huh7, anti-RKO, anti-Hela, anti-CaES-17, anti-CNE, anti-Hep-2, anti-PC-3 and anti-SK-OV-3 effect [19]: strong
